Data taken from patent US11129835B2, “Methods and compositions for the inhibition of PIN1” (Beth Israel Deaconess Medical Center, Inc., priority 2012, dated 2021).

What was measured:
[1] = target: T1, Pin1 (Homo sapiens, UniProt Q13526); assay: Pin1 fluorescence polarization competition assay, primary qHTS (HiFluor-488 / Alexa488 probe);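 further: Pin1 protein with fluorescent peptide probe, compound displacement read by fluorescence polarization, percent inhibition derived from corrected polarization values, concentration-response curves in 1536-well format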
Protocol: (§1) The goal of this assay was to identify small-molecule inhibitors of Pin1 using a fluorescence polarization competition assay (FIG. 1). […] Candidate compounds were screened in a concentration-titration series (e.g., 57 μM to 0.7 nM).
(§2) Pin1 (0.6 μM) was dispensed into black, solid 1536-well plates (32 rows by 48 columns) at 2 μL/well in Pin1 buffer (10 mM HEPES (pH 7.5), 10 mM NaCl, 0.01% Tween20, 1 mM DTT, and 1% glycerol). Next, 23 nL of compound or DMSO was delivered to each well using a pin tool (tip wash sequence: DMSO, IPA, MeOH, 3 s vacuum dry). Two μL of Pin1-1b-HiFluor488 peptide in buffer (10 mM HEPES (pH 7.5), 10 mM NaCl, 0.01% Tween20, 1 mM DTT, and 1% glycerol, 0.02 μM Pin1-1b-HiFluor488) or DMSO was then dispensed to each well using a pin tool (tip wash sequence: DMSO, IPA, MeOH, 3 s vacuum dry), and plates were incubated at room temperature for 10 min (Table 2). Each plate included controls with no candidate inhibitory compound (32 wells), with unlabeled Pin1-1c titration (3.5 mM to 0.020 mM in a 1:2 dilution series including 2 replicates per concentration; 32 wells), and without Pin1 (64 wells).
(§3) The fluorescence polarization signal of each well was measured on a ViewLux® plate reader using a 480/20 nm excitation filter and 540/25 nm S and P emission filters with a 20 second exposure with 2× binning (Table 2). Percent inhibitory activity was determined from corrected fluorescence polarization values.
(§4) Concentration-response curves were fitted to the signals arising from the resulting fluorescence polarization. The concentration-effect curves were then classified based on curve quality (r^2), response magnitude, and degree of measured activity. Compounds were subsequently categorized based on their curve class.
Curves showing change polarized fluorescence may be categorized into 5 classes. Class 1 includes complete curves, having 2 asymptotes and an r^2 value of ≥0.9, with an efficacy of either >80% (class 1.1) or ≤80% (class 1.2). Class 1 curves may also be classified as noisy curves when efficacy is >80% and r^2<0.9 (class 1.3) or when efficacy is ≤80% and r^2<0.9 (class 1.4). Class 2 includes incomplete curves having 1 asymptote and an r^2 value of either >0.9 (subclass a) or <0.9 (subclass b), with an efficacy of either >80% (class 2.1) or ≤80% (class 2.2). Class 2 curves may also be classified as noisy curves when efficacy is >80% and r^2<0.9 (class 2.3) or when efficacy is ≤80% and r^2<0.9 (class 2.4). Class 3 includes single point activity curves having 1 asymptote and an efficacy >3 SD from the mean activity of the sample field at the highest tested concentration. […] A fifth class captures any curves not otherwise classified (FIG. 4).

[2] = target: T1, Pin1; assay: confirmatory Pin1 fluorescence polarization competition assay (Alexa488 reconfirmed); details: for Alexa488 Reconfirmed Curve Class: confirmatory retest; for Emax: read-out: Alexa488 Reconfirmed Efficacy;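 on all read-outs here: Pin1 competition with a HiFluor488-labelled peptide probe, read as fluorescence polarization after 10 min at room temperature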
Protocol: as §1, §2, §3, §4

[3] = target: T1, Pin1; assay: Pin1 fluorescence polarization competition assay with Tamra-probe (secondary); details: for Tamra Secondary Curve Class: Tamra-probe; for Emax: read-out: Tamra Secondary Efficacy
Protocol: An assay was developed for the identification of inhibitors of Pin1. […] Candidate compounds were screened in a concentration-titration series (e.g., 57 μM to 0.7 nM).
as §2, §3, §4
A further secondary assessment was accomplished by replacing the HiFluor-488-labeled probe with Tamra-probe, a red-shifted fluorophore.

[4] = Alexa488 Primary Potency, primary qHTS
[5] = Average HTS Potency, average over Alexa488 primary, Alexa488 reconfirmed and Tamra secondary assays
[6] = read-out: Alexa488 Primary Efficacy

T1 sequence (Q13526 whole entry): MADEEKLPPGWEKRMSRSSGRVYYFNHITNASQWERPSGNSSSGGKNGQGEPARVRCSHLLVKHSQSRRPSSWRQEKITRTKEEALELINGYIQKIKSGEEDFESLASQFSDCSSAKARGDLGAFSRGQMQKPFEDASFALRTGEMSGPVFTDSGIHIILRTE

| SMILES | IC50 [1, 4] | IC50 [1, 5] | Alexa488 Primary Curve Class ([1]; primary qHTS) | Emax [1, 6] | Emax ([1]; read-out: Average HTS Efficacy) | IC50 [2] | Alexa488 Reconfirmed Curve Class [2] | Emax [2] | IC50 [3] | Tamra Secondary Curve Class [3] | Emax [3] |
| --- | --- | --- | --- | --- | --- | --- | --- | --- | --- | --- | --- |
| Cc1oc(-c2ccc3c(c2)OCCO3)cc1C(=O)NC(Cc1ccccc1)C(=O)O (centres unmarked) [Compound 21] | 15 µM | 11 µM | 1.2 (≤80% (class 1.2)) | 58% | 62% | 11 µM | 2.2 (≤80% (class 2.2)) | 56% | 8 µM | 2.2 (≤80% (class 2.2)) | 72% |
| O=C(O)c1cc2cccc([N+](=O)[O-])c2[nH]1 [Compound 22] | – | 17 µM | – | – | 88% | 21 µM | 2.2 (≤80% (class 2.2)) | 93% | 12 µM | 2.2 (≤80% (class 2.2)) | 82% |
| O=C(O)Cc1c[nH]c2cccc(O)c12 [Compound 23] | 76 µM | 33 µM | – | 63% | 77% | 15 µM | – | 92% | 8 µM | 2.2 (≤80% (class 2.2)) | 77% |
| O=S(=O)(Nc1nc(-c2sccc2Cl)cs1)c1cc(Cl)ccc1Cl [Compound 24] | 43 µM | 23 µM | 1.2 (≤80% (class 1.2)) | 76% | 92% | 14 µM | 1.2 (≤80% (class 1.2)) | 101% | 12 µM | – | 100% |
| COc1ccc(NC(=O)CN(C)C(=O)c2cc3c(s2)CCC3)cc1 [Compound 26] | 20 µM | 22 µM | – | 71% | 94% | 24 µM | – | 111% | 21 µM | – | 101% |
| COc1ccc(S(=O)(=O)N2CCN(C(=O)c3cc4c(s3)CCC4)CC2)cc1 [Compound 27] | 23 µM | 27 µM | – | 85% | 108% | – | – | 112% | 27 µM | – | 126% |
| COc1ccc(C(=O)c2no[n+]([O-])c2C(=O)c2ccc(OC)cc2)cc1 [Compound 32] | 38 µM | 13 µM | 1.2 (≤80% (class 1.2)) | 21% | 61% | 0.24 µM | – | 82% | 0.19 µM | – | 81% |
| Cc1cc(C(=O)NCc2ccc(C(=O)O)o2)c(C)o1 [Compound 33] | 48 µM | 21 µM | 1.2 (≤80% (class 1.2)) | 20% | 58% | 7 µM | 2.2 (≤80% (class 2.2)) | 84% | 10 µM | 2.2 (≤80% (class 2.2)) | 70% |

These reach a lower IC50 [1, 5]. Values come first.

| IC50 [1, 4] | IC50 [1, 5] | Alexa488 Primary Curve Class ([1]; primary qHTS) | Emax [1, 6] | Emax ([1]; read-out: Average HTS Efficacy) | IC50 [2] | Alexa488 Reconfirmed Curve Class [2] | Emax [2] | IC50 [3] | Tamra Secondary Curve Class [3] | Emax [3] | SMILES |
| --- | --- | --- | --- | --- | --- | --- | --- | --- | --- | --- | --- |
| 3 µM | 0.9 µM | – | 83% | 85% | 0.1 µM | – | 90% | 0.1 µM | – | 82% | Cc1ccc(C(=O)c2no[n+]([O-])c2C(=O)c2ccc(C)cc2)cc1 [Compound 29] |
| 3 µM | 1.16 µM | 1.2 (≤80% (class 1.2)) | 69% | 79% | 0.34 µM | – | 89% | 0.43 µM | – | 80% | Cc1c(C(=O)c2no[n+]([O-])c2C(=O)c2cnn(C)c2C)cnn1C [Compound 30] |
| 4 µM | 2 µM | – | 74% | 80% | 2 µM | – | 85% | 2 µM | – | 82% | N#Cc1no[n+]([O-])c1C(=O)c1cccs1 [Compound 31] |
